According to the kinase profiling compilation of Christmann-Franck et al. (2016):

Tests used:
Test in all cases: radiometric filter-binding kinase assay
[1] = biological target: ABL1 (human) (UniProt P00519); conditions: compound 100.0 µM; ATP 5 µM
[2] = tested on: AKT2 (human), P31751 [S474D]; conditions: compound 100.0 µM; ATP 50 µM
[3] = biological target: AURKA (human) (UniProt O14965); conditions: compound 100.0 µM; ATP 5 µM
[4] = biological target: BRSK2 (human) (UniProt Q8IWQ3); conditions: compound 100.0 µM; ATP 50 µM
[5] = biological target: CDK2 CCNA2 (human) (UniProt P20248+P24941); conditions: compound 100.0 µM; ATP 20 µM
[6] = biological target: CSNK2A1 (human) (UniProt P68400); conditions: compound 100.0 µM; ATP 5 µM
[7] = biological target: CaMK1 (human) (UniProt Q14012); conditions: compound 100.0 µM; ATP 50 µM
[8] = biological target: DYRK3 (human) (UniProt O43781); conditions: compound 100.0 µM; ATP 5 µM
[9] = biological target: EEF2K (human) (UniProt O00418); conditions: compound 100.0 µM; ATP 5 µM
EEF2K (human), sequence (O00418 whole entry, looked up): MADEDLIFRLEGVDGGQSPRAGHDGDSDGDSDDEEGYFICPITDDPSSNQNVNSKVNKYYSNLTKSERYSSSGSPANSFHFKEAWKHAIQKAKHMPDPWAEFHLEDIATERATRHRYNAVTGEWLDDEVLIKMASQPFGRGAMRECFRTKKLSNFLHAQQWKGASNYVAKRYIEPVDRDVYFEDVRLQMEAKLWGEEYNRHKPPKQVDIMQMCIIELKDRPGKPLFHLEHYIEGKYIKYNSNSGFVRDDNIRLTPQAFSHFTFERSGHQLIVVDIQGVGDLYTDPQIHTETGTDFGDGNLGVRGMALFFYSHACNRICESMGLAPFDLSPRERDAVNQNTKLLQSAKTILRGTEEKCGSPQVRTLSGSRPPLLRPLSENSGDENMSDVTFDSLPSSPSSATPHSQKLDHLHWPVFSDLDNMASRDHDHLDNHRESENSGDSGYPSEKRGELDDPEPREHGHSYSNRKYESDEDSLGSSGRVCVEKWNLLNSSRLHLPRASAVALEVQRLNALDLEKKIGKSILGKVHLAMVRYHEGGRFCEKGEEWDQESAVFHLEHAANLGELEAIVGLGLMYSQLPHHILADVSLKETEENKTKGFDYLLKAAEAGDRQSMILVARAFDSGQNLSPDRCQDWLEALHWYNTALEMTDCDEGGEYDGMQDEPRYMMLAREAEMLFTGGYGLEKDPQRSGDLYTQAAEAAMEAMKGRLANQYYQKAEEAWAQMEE

[10] = biological target: EPHA4 (human) (UniProt P54764); conditions: compound 100.0 µM; ATP 50 µM
[11] = biological target: EPHB4 (human) (UniProt P54760); conditions: compound 100.0 µM; ATP 5 µM
[12] = biological target: ERBB4 (human) (UniProt Q15303); conditions: compound 100.0 µM; ATP 5 µM
[13] = biological target: FLT1 (human) (UniProt P17948); conditions: compound 100.0 µM; ATP 20 µM
[14] = biological target: MAP3K11 (human) (UniProt Q16584); conditions: compound 100.0 µM; ATP 20 µM
[15] = biological target: MAPK13 (human) (UniProt O15264); conditions: compound 100.0 µM; ATP 5 µM
[16] = biological target: MAPK8 (human) (UniProt P45983); conditions: compound 100.0 µM; ATP 20 µM
[17] = biological target: MAPKAPK2 (human) (UniProt P49137); conditions: compound 100.0 µM; ATP 20 µM
MAPKAPK2 (human), sequence (P49137 whole entry, looked up): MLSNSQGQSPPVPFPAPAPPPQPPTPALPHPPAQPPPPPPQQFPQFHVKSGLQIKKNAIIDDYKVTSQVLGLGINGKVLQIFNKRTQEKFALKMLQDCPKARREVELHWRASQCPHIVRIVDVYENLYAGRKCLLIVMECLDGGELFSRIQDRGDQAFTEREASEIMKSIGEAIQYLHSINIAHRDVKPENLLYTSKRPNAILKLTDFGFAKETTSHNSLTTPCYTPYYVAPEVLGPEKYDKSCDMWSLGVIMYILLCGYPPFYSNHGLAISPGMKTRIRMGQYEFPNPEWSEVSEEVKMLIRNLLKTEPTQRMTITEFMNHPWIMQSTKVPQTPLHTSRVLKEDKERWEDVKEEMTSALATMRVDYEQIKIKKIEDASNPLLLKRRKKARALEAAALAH

[18] = biological target: MAPKAPK3 (human) (UniProt Q16644); conditions: compound 100.0 µM; ATP 20 µM
[19] = biological target: MARK1 (human) (UniProt Q9P0L2); conditions: compound 100.0 µM; ATP 20 µM
[20] = biological target: MELK (human) (UniProt Q14680); conditions: compound 100.0 µM; ATP 50 µM
[21] = biological target: MINK1 (human) (UniProt Q8N4C8); conditions: compound 100.0 µM; ATP 50 µM
[22] = biological target: MKNK2 (human) (UniProt Q9HBH9); conditions: compound 100.0 µM; ATP 50 µM
MKNK2 (human), sequence (Q9HBH9 whole entry, looked up): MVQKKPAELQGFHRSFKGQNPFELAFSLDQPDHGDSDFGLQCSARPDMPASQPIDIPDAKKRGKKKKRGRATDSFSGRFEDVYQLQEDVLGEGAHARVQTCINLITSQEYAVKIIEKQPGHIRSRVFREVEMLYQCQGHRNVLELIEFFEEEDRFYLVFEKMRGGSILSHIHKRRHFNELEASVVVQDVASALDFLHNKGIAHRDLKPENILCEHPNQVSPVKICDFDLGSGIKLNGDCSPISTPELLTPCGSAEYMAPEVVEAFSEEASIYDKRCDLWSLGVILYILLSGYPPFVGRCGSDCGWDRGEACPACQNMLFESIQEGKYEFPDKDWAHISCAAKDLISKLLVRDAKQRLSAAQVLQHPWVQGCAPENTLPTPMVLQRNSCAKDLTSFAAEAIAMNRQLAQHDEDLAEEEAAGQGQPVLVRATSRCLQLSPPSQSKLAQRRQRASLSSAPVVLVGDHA

[23] = biological target: MST4 (human) (UniProt Q9P289); conditions: compound 100.0 µM; ATP 20 µM
[24] = biological target: MYLK (human) (UniProt Q15746); conditions: compound 100.0 µM; ATP 50 µM
MYLK (human), sequence (Q15746 whole entry, looked up): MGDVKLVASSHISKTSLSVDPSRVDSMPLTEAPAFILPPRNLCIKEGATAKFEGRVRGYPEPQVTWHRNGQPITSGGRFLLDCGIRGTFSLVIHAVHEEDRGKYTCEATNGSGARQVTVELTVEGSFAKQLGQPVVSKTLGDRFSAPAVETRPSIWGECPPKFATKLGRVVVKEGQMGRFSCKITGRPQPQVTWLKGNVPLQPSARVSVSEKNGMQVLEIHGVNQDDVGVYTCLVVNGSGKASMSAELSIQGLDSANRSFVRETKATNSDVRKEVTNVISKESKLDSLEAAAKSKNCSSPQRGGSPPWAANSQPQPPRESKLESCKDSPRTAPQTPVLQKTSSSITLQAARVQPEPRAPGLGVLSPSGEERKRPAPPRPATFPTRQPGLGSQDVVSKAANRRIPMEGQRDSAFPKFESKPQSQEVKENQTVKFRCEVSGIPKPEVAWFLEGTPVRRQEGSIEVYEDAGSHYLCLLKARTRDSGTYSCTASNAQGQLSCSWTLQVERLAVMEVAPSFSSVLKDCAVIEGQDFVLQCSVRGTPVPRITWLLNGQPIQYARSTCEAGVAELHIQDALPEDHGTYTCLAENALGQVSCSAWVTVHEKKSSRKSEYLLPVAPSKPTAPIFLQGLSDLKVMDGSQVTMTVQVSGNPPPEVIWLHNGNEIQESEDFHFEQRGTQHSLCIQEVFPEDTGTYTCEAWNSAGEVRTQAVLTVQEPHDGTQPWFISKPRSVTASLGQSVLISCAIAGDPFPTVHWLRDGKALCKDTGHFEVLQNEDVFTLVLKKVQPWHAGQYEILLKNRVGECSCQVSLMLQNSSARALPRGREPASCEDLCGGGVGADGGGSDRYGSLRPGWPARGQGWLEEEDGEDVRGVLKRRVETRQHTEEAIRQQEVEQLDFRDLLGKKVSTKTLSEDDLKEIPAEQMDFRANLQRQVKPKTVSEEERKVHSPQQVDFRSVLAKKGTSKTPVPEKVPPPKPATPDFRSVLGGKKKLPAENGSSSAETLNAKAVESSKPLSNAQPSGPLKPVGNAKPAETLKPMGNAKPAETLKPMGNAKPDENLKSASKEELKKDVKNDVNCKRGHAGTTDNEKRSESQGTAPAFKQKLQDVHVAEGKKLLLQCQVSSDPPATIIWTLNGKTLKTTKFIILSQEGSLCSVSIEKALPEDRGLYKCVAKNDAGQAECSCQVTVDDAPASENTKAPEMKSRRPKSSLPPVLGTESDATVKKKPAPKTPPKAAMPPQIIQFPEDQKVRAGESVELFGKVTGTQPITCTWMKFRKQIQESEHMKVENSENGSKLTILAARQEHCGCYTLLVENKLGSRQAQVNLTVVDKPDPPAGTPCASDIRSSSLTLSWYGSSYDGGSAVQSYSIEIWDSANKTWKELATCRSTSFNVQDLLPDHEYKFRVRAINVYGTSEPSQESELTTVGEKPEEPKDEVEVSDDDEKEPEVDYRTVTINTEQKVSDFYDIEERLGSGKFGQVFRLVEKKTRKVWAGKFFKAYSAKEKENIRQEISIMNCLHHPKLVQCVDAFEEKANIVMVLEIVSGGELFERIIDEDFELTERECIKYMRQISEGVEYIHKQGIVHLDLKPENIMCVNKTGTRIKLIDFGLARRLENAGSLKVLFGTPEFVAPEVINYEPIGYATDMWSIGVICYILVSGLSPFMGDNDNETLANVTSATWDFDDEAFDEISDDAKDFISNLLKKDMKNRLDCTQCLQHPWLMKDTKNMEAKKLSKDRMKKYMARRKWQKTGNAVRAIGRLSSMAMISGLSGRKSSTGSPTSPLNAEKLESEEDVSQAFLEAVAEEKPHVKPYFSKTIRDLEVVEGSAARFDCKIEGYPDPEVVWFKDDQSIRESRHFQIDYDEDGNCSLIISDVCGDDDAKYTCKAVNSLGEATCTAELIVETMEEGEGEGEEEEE

[25] = biological target: NEK2 (human) (UniProt P51955); conditions: compound 100.0 µM; ATP 50 µM
NEK2 (human), sequence (P51955 whole entry, looked up): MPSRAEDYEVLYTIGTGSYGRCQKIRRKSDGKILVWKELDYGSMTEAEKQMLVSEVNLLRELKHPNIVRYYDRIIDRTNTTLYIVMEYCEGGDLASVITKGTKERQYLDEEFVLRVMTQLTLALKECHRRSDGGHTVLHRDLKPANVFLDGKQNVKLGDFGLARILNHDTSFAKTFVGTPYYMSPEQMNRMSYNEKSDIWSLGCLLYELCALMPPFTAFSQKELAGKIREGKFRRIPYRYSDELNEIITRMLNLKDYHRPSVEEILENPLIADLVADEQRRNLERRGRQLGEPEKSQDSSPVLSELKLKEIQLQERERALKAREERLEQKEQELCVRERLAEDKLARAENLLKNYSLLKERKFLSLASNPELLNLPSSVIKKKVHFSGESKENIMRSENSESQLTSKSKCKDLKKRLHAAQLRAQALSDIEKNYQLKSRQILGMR

[26] = biological target: NEK6 (human) (UniProt Q9HC98); conditions: compound 100.0 µM; ATP 50 µM
[27] = biological target: PAK6 (human) (UniProt Q9NQU5); conditions: compound 100.0 µM; ATP 20 µM
[28] = biological target: PHKG1 (human) (UniProt Q16816); conditions: compound 100.0 µM; ATP 50 µM
[29] = biological target: PIM1 (human) (UniProt P11309); conditions: compound 100.0 µM; ATP 20 µM
[30] = biological target: PIM2 (human) (UniProt Q9P1W9); conditions: compound 100.0 µM; ATP 5 µM
[31] = biological target: PIM3 (human) (UniProt Q86V86); conditions: compound 100.0 µM; ATP 20 µM
[32] = biological target: PRKCA (human) (UniProt P17252); conditions: compound 100.0 µM; ATP 20 µM
[33] = biological target: PTK6 (human) (UniProt Q13882); conditions: compound 100.0 µM; ATP 20 µM
[34] = tested on: ROCK2 (rat); conditions: compound 100.0 µM; ATP 20 µM; accession and sequence are those of the human protein
[35] = biological target: RPS6KA1 KD1 KD2 (human) (UniProt Q15418); conditions: compound 100.0 µM; ATP 50 µM
[36] = tested on: RPS6KB1 (human), P23443 [T412E]; conditions: compound 100.0 µM; ATP 20 µM
[37] = biological target: STK16 (human) (UniProt O75716); conditions: compound 100.0 µM; ATP 50 µM
[38] = biological target: STK33 (human) (UniProt Q9BYT3); conditions: compound 100.0 µM; ATP 50 µM
[39] = biological target: TBK1 (human) (UniProt Q9UHD2); conditions: compound 100.0 µM; ATP 50 µM
[40] = biological target: TEK (human) (UniProt Q02763); conditions: compound 100.0 µM; ATP 20 µM
TEK (human), sequence (Q02763 whole entry, looked up): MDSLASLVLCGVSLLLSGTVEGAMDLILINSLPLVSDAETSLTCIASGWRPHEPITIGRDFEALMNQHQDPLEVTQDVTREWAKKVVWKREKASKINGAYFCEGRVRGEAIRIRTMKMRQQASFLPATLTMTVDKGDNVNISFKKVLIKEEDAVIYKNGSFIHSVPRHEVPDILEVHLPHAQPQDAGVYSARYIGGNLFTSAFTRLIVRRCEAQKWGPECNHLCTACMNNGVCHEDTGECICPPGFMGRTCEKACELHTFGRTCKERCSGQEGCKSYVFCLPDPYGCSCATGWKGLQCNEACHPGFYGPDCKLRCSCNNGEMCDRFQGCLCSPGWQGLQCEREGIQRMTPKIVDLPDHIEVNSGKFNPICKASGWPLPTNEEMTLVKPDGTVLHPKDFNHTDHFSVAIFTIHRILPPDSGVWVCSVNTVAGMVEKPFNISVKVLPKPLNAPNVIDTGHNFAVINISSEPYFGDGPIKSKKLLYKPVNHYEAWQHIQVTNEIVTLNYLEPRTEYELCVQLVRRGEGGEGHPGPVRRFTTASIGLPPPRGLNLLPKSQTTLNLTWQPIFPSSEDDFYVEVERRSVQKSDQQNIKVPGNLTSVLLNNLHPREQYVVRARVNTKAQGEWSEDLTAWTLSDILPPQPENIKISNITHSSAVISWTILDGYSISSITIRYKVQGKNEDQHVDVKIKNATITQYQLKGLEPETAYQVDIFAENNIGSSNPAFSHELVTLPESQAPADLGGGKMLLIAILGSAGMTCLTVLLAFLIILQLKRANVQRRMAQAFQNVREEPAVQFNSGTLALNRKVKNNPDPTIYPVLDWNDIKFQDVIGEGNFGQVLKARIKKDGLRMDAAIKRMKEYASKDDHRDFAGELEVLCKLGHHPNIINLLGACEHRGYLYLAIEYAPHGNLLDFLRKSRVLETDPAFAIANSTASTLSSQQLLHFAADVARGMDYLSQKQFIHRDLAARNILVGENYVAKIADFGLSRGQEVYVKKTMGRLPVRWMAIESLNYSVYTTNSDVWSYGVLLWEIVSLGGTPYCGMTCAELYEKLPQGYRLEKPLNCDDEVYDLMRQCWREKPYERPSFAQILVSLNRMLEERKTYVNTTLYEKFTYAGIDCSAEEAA

SMILES | inhibition [1] [%] | inhibition [2] [%] | inhibition [3] [%] | inhibition [4] [%] | inhibition [5] [%] | inhibition [6] [%] | inhibition [7] [%] | inhibition [8] [%] | inhibition [9] [%] | inhibition [10] [%] | inhibition [11] [%] | inhibition [12] [%] | inhibition [13] [%] | inhibition [14] [%] | inhibition [15] [%] | inhibition [16] [%] | inhibition [17] [%] | inhibition [18] [%] | inhibition [19] [%] | inhibition [20] [%] | further results
CC(C)(C)Nc1c(COCc2ccccc2)nc2[nH]cnn12 | 11 | 39 | 5 | 22 | 14 | 5 | 83 | 17 | 0 | 4 | 13 | 53 | 0 | 0 | 0 | 2 | 2 | 38 | 0 | 16 | inhibition [21]: 3%; inhibition [22]: 0%; inhibition [23]: 0%; inhibition [24]: 24%; inhibition [25]: 6%; inhibition [26]: 0%; inhibition [27]: 20%; inhibition [28]: 10%; inhibition [29]: 30%; inhibition [30]: 16%; inhibition [31]: 18%; inhibition [32]: 0%; inhibition [33]: 21%; inhibition [34]: 0%; inhibition [35]: 3%; inhibition [36]: 0%; inhibition [37]: 0%; inhibition [38]: 0%; inhibition [39]: 9%; inhibition [40]: 0%
Cc1cccc(C)c1-c1cn2nc(N)nc2cn1 | 14 | 37 | 12 | 18 | 17 | 17 | 52 | 30 | 13 | 38 | 14 | 28 | 22 | 0 | 15 | 7 | 14 | 33 | 15 | 8 | inhibition [21]: 45%; inhibition [22]: 30%; inhibition [23]: 21%; inhibition [24]: 12%; inhibition [25]: 38%; inhibition [26]: 3%; inhibition [27]: 11%; inhibition [28]: 41%; inhibition [29]: 18%; inhibition [30]: 2%; inhibition [31]: 26%; inhibition [32]: 9%; inhibition [33]: 15%; inhibition [34]: 19%; inhibition [35]: 21%; inhibition [36]: 8%; inhibition [37]: 6%; inhibition [38]: 12%; inhibition [39]: 21%; inhibition [40]: 6%
COc1ccc(NC(=S)Nc2cnc3[nH]cnn3c2=O)cn1 | 5 | 41 | 23 | 34 | 0 | 28 | 0 | 20 | 10 | 22 | 1 | 31 | 38 | 0 | 0 | 2 | 26 | 37 | 32 | 0 | inhibition [21]: 16%; inhibition [22]: 0%; inhibition [23]: 0%; inhibition [24]: 0%; inhibition [25]: 0%; inhibition [26]: 3%; inhibition [27]: 0%; inhibition [28]: 30%; inhibition [29]: 0%; inhibition [30]: 0%; inhibition [31]: 0%; inhibition [32]: 23%; inhibition [33]: 9%; inhibition [34]: 7%; inhibition [35]: 19%; inhibition [36]: 0%; inhibition [37]: 3%; inhibition [38]: 15%; inhibition [39]: 7%; inhibition [40]: 0%
